Values after ≈ are worked out from the molar mass of the structure shown.
Assays:
Type in all cases: cell-based
[1] = Cytotoxicity assay (HepG2, CellTiter-Blue); details: human; HepG2 cells, 3 days treatment; * = detection limit
Experimental: The cytotoxicity of compounds of present invention was assessed by HepG2 assay. HepG2 cells (ATCC HB-8065™) were seeded into 96-well plates (1.2×10^4 cells per well) and treated with compounds for 3 days, cell viability was measured at day 3 post compound treatment using the CellTiter-Blue® Cell Viability Assay (Promega, Cat. No. G8082). 20 μL of Cell titer blue buffer were added to each well of the cells, incubated for 3 hours at 37° C., and the fluorescence value was measured by a plate reader (Molecular Device SpectraMax M2). The CC50 value of each compound is plotted with GraphPad Prism using four parameter logistic equation.

[2] = system: K. pneumoniae (ATCC10031); assay: 50% growth inhibitory concentration (IC50) determination assay, K. pneumoniae; details: Klebsiella pneumoniae, ATCC10031; growth inhibition, Iso-Sensitest broth, OD 600 nm over 16 h; * = detection limit; read-out: IC50 (μM) K. pneumoniae ATCC10031
Experimental: (§1) The in vitro antimicrobial activity of the compounds against E. coli (BW25113, obtained from Coli Genetic Stock Center, #7636) and K. pneumoniae (ATCC10031) was determined according to the following procedure:
(§2) The assay used a 10-points Iso-Sensitest broth medium to measure quantitatively the in vitro activity of the compounds against E. coli BW25113 and K. pneumoniae ATCC 10031.
(§3) Stock compounds in DMSO were serially two-fold diluted (range from 50 to 0.097 μM final concentration) in 384 wells microtiter plates and inoculated with 49 μL the bacterial suspension in Iso-Sensitest broth medium to have a final cell concentration of ˜5×10^5 CFU/mL in a final volume/well of 50 μL/well. Microtiter plates were incubated at 35±2° C.
(§4) Bacterial cell growth was determined with the measurement of optical density at λ=600 nm each 20 minutes over a time course of 16 h.
(§5) Growth inhibition was calculated during the logarithmic growth of the bacterial cells with determination of the concentration inhibiting 50% (IC50) of the growth.

E. coli (BW25113) = assay: 50% growth inhibitory concentration (IC50) determination assay, E. coli; details: Escherichia coli, BW25113; growth inhibition, Iso-Sensitest broth, OD 600 nm over 16 h; read-out: IC50 (μM) E. coli K12 BW25113
Experimental: as §1, §2, §3, §4, §5

E. coli (ATCC 25922) = assay: Minimal Inhibitory Concentration (MIC) assay; details: Escherichia coli, ATCC25922; CAMHB, 20 hours at 35° C.; read-out: MIC (μg/mL) E. coli ATCC 25922
Experimental: The in vitro potency of compounds to inhibit E. coli (ATCC 25922) growth was assessed by MIC (Minimal Inhibitory Concentration) assay. Samples were prepared from 10 mM DMSO stock solutions. After serial 2-fold dilution in DMSO in a master plate (Greiner, Cat No: 651201), 180 μL sterile distilled water was added to 20 μL each aliquot of the samples. Then 10 μL diluted compounds were transferred into a new assay plate (Costar, 3599).
The growth medium […] Mueller Hinton Broth (CAMHB) was prepared by adding the 20 mg per liter CaCl2 and 20 mg per liter MgCl2 into the MHB medium (Jianglai Company, sterilized).
Vials of each of the test microorganisms were maintained frozen in the vapor phase of a liquid nitrogen freezer. Took out the bacteria E. coli ATCC 25922 (KWIKSTIK, 0335K) from liquid nitrogen freezer, thawed it in room temperature, and diluted the bacterial in the CAMHB medium to achieve a final inoculum of 5×10^5 CFU/mL, 90 μL CAMHB with bacteria was dispensed to the assay plate and pipetted 5 times.
Then the assay plates were incubated for 20 hours at 35° C. in ambient air. Following incubation, the MIC (μg/mL), the lowest concentration of drug that inhibits visible growth of the microorganism was read and recorded throw the microscope.

| Structure (SMILES) | IC50 [2] [µM] | IC50 (E. coli (BW25113)) [µM] | MIC (E. coli (ATCC 25922)) [µg/mL] | CC50 at 3 days [1] [nM] |
| --- | --- | --- | --- | --- |
| CCNc1cc(F)cc2c1[nH]c1ncc(-c3cnc(OC)nc3)c(-n3ncc4c3CNC4)c12 [Example 1.21, 4-(5,6-Dihydro-4H-pyrrolo[3,4-c]pyrazol-1-yl)-N-ethyl-6-fluoro-3-(2-methoxypyrimidin-5-yl)-9H-pyrido[2,3-b]indol-8-amine] |  |  |  | 30500 |
| CCNc1cc(F)cc2c1[nH]c1ncc(-c3cnc(OC)nc3)c(-n3nc(C(F)(F)F)c4c3CNC4)c12 [Example 1.35, N-Ethyl-6-fluoro-3-(2-methoxypyrimidin-5-yl)-4-[3-(trifluoromethyl)-5,6-dihydro-4H-pyrrolo[3,4-c]pyrazol-1-yl]-9H-pyrido[2,3-b]indol-8-amine] |  |  | 0.601 (≈ 1.17 µM) | 58000 |
| CNc1cc(F)cc2c1[nH]c1ncc(-c3cnc(OC)nc3)c(-n3nc(C#N)c4c3CNC4)c12 [Example 1.38, 1-[6-Fluoro-3-(2-methoxypyrimidin-5-yl)-8-(methylamino)-9H-pyrido[2,3-b]indol-4-yl]-5,6-dihydro-4H-pyrrolo[3,4-c]pyrazole-3-carbonitrile] |  |  |  | 11000 |
| CNc1cc(F)cc2c1[nH]c1ncc(-c3cncc(C#N)c3)c(-n3cc(CN)c(C(F)(F)F)n3)c12 [Example 1.14, 5-[4-[4-(Aminomethyl)-3-(trifluoromethyl)pyrazol-1-yl]-6-fluoro-8-(methylamino)-9H-pyrido[2,3-b]indol-3-yl]pyridine-3-carbonitrile] |  |  |  | 13300 |
| CCNc1cc(F)cc2c1[nH]c1ncc(-c3cnc(OC)nc3)c(-n3ccc(C(F)(F)F)n3)c12 [Example 1.04, N-Ethyl-6-fluoro-3-(2-methoxypyrimidin-5-yl)-4-[3-(trifluoromethyl)pyrazol-1-yl]-9H-pyrido[2,3-b]indol-8-amine] | 0.13 | 1.56 | 0.552 (≈ 1.17 µM) |  |
| CCNc1cc(F)cc2c1[nH]c1ncc(-c3cnc(OCC(C)(C)C(=O)O)nc3)c(-n3ccc(C(F)(F)F)n3)c12 [Example 2.03, 3-[5-[8-(Ethylamino)-6-fluoro-4-[3-(trifluoromethyl)pyrazol-1-yl]-9H-pyrido[2,3-b]indol-3-yl]pyrimidin-2-yl]oxy-2,2-dimethyl-propanoic acid] |  |  | 0.653 (≈ 1.17 µM) | 20700 |
| CCNc1cc(F)cc2c1[nH]c1ncc(-c3cncc(C#N)c3)c(-n3cc(C(F)(F)F)cn3)c12 [Example 1.03, 5-[8-(Ethylamino)-6-fluoro-4-[4-(trifluoromethyl)pyrazol-1-yl]-9H-pyrido[2,3-b]indol-3-yl]pyridine-3-carbonitrile] | 0.206 | 1.61 | 0.679 (≈ 1.46 µM) |  |
| CCNc1cc(F)c(F)c2c1[nH]c1ncc(-c3cncc(C#N)c3)c(-n3ccc(C(F)(F)F)n3)c12 [Example 1.28, 5-[8-(Ethylamino)-5,6-difluoro-4-[3-(trifluoromethyl)pyrazol-1-yl]-9H-pyrido[2,3-b]indol-3-yl]pyridine-3-carbonitrile] | 0.199 | 0.8 | 0.7 (≈ 1.45 µM) |  |
| CCNc1cc(F)cc2c1[nH]c1ncc(-c3cnc4ccnn4c3)c(-n3ccc(C(F)(F)F)n3)c12 [Example 1.19, N-Ethyl-6-fluoro-3-pyrazolo[1,5-a]pyrimidin-6-yl-4-[3-(trifluoromethyl)pyrazol-1-yl]-9H-pyrido[2,3-b]indol-8-amine] | 0.196 | 0.739 | 0.281 (≈ 0.585 µM) |  |
| CCNc1cc(F)c(F)c2c1[nH]c1ncc(-c3cnc(OC)nc3)c(-n3ccc(C(F)(F)F)n3)c12 [Example 1.29, N-Ethyl-5,6-difluoro-3-(2-methoxypyrimidin-5-yl)-4-[3-(trifluoromethyl)pyrazol-1-yl]-9H-pyrido[2,3-b]indol-8-amine] | 0.175 | 1.05 | 0.354 (≈ 0.723 µM) |  |

The next lines start with results.

| IC50 [2] [µM] | IC50 (E. coli (BW25113)) [µM] | MIC (E. coli (ATCC 25922)) [µg/mL] | Structure (SMILES) | CC50 at 3 days [1] [nM] |
| --- | --- | --- | --- | --- |
| ≤ 0.098 | 0.775 |  | CCNc1cc(F)cc2c1[nH]c1ncc(-c3cncc(C(=O)NOC)c3)c(-n3ccc(C(F)(F)F)n3)c12 [Example 3.03, 5-[8-(Ethylamino)-6-fluoro-4-[3-(trifluoromethyl)pyrazol-1-yl]-9H-pyrido[2,3-b]indol-3-yl]-N-methoxy-pyridine-3-carboxamide] | 13000 |
| ≤ 0.098 | 2 | 0.727 (≈ 1.44 µM) | CCNc1cc(F)cc2c1[nH]c1ncc(-c3cncc(C#N)c3)c(-n3nc(C(F)(F)F)c4c3CNC4)c12 [Example 1.34, 5-[8-(Ethylamino)-6-fluoro-4-[3-(trifluoromethyl)-5,6-dihydro-4H-pyrrolo[3,4-c]pyrazol-1-yl]-9H-pyrido[2,3-b]indol-3-yl]pyridine-3-carbonitrile] | 14100 |
| 0.111 | 1.12 | 0.284 (≈ 0.585 µM) | CCNc1cc(F)cc2c1[nH]c1ncc(-c3cnc(C(C)O)nc3)c(-n3ccc(C(F)(F)F)n3)c12 (stereo not shown) [Example 1.54, 1-[5-[8-(ethylamino)-6-fluoro-4-[3-(trifluoromethyl)pyrazol-1-yl]-9H-pyrido[2,3-b]indol-3-yl]pyrimidin-2-yl]ethanol] | 12400 |
| ≤ 0.098 | 0.462 | 0.417 (≈ 0.833 µM) | CCNc1cc(F)cc2c1[nH]c1ncc(-c3cnc(OC)nc3)c(-n3cc(CN)c(C(F)(F)F)n3)c12 [Example 1.27, 4-[4-(Aminomethyl)-3-(trifluoromethyl)pyrazol-1-yl]-N-ethyl-6-fluoro-3-(2-methoxypyrimidin-5-yl)-9H-pyrido[2,3-b]indol-8-amine] |  |
| ≤ 0.098 | 0.495 | 0.267 (≈ 0.585 µM) | CCNc1cc(F)cc2c1[nH]c1ncc(-c3cnc(N)nc3)c(-n3ccc(C(F)(F)F)n3)c12 [Example 1.06, 3-(2-Aminopyrimidin-5-yl)-N-ethyl-6-fluoro-4-[3-(trifluoromethyl)pyrazol-1-yl]-9H-pyrido[2,3-b]indol-8-amine] |  |
| ≤ 0.098 | 0.346 | 0.153 (≈ 0.375 µM) | CNc1cc(F)cc2c1[nH]c1ncc(-c3cncc(C#N)c3)c(-n3cc(C#N)cn3)c12 [Example 1.09, 5-[4-(4-Cyanopyrazol-1-yl)-6-fluoro-8-(methylamino)-9H-pyrido[2,3-b]indol-3-yl]pyridine-3-carbonitrile] | 14600 |
| ≤ 0.098 | 1.32 |  | CCNc1cc(F)cc2c1[nH]c1ncc(-c3cncc(N)c3)c(-n3ccc(C(F)(F)F)n3)c12 [Example 1.37, 3-(5-Amino-3-pyridyl)-N-ethyl-6-fluoro-4-[3-(trifluoromethyl)pyrazol-1-yl]-9H-pyrido[2,3-b]indol-8-amine] | 11100 |
| ≤ 0.098 | 1.45 | 0.734 (≈ 1.36 µM) | CCNc1cc(F)cc2c1[nH]c1ncc(-c3cncc(C(=O)NCCOC)c3)c(-n3ccc(C(F)(F)F)n3)c12 [Example 3.06, 5-[8-(ethylamino)-6-fluoro-4-[3-(trifluoromethyl)pyrazol-1-yl]-9H-pyrido[2,3-b]indol-3-yl]-N-(2-methoxyethyl)pyridine-3-carboxamide] |  |
| ≤ 0.098 | 0.796 |  | CCNc1cc(F)cc2c1[nH]c1ncc(-c3cncc(C(=O)NC)c3)c(-n3ccc(C(F)(F)F)n3)c12 [Example 1.43, 5-[8-(Ethylamino)-6-fluoro-4-[3-(trifluoromethyl)pyrazol-1-yl]-9H-pyrido[2,3-b]indol-3-yl]-N-methyl-pyridine-3-carboxamide] | 11100 |
| ≤ 0.098 | 0.701 | 0.314 (≈ 0.743 µM) | CCNc1cc(F)cc2c1[nH]c1ncc(-c3cncc(C#N)c3)c(-n3ccc(C#N)n3)c12 [Example 1.05, 5-[4-(3-Cyanopyrazol-1-yl)-8-(ethylamino)-6-fluoro-9H-pyrido[2,3-b]indol-3-yl]pyridine-3-carbonitrile] |  |

Reference: patent publication US20210309658A1, “ARYL COMPOUNDS FOR THE TREATMENT AND PROPHYLAXIS OF BACTERIAL INFECTION” (Hoffmann-La Roche Inc., priority 2018, published 2021)
